Source: US20240393292A1, “ALLERGY ANTIGEN AND EPITOPE THEREOF” (HOYU CO., LTD., priority 2019, published 2024)
One block for each substance: values may come before it.

Test system: IgE antibodies from patients
Test: Wheat epitope mapping (2): overlapping 10-amino-acid peptide fragments shifted by one amino acid;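 for Rank of partial sequence as epitope binding to IgE antibody: key = sequence deemed particularly important within the common 15-residue sequence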;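 for epitope sequence binding to IgE antibody, rank (Key/Preferably/More preferably): key of grades: preferably = shorter partial sequence still acting as epitope; more preferably = sequence improving IgE binding; key = particularly important sequence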
Type: binding, human
Procedure, shortened: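 Residual binding was banded as <30% none, 30–<50% poor, 50–<70% somewhat poor and ≥70% retained, relative to the parent overlapping sequence set to 100%. Values were chemiluminescent IgE signals from patient sera after subtracting secondary-antibody-only controls. The peptides were spot-synthesised 10-mers shifted by one amino acid.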

[1] = serum of patient P36 (WDEIA), partial sequence
[2] = serum of patient G6 (adult, general immediate type allergy to wheat), sequence without X
[3] = serum of patient P24 (WDEIA), sequence without X
[4] = serum of patient P50 (child, general immediate type allergy to wheat), sequence without X
[5] = serum of patient P34 (WDEIA), sequence without X
[6] = serum of patient P35 (WDEIA), sequence without X
[7] = serum of patient P3 (WDEIA), sequence without X

Rank of partial sequence as epitope binding to IgE antibody (serum of patient P28 (WDEIA), sequence without X): Key
Substance: 1704 (EAANFT; REGION 1..6: note = epitope) [compound 1704]

Epitope sequence binding to IgE antibody, rank of the sequence [1]: Preferably
Substance: 2594 (QLVQQL; REGION 1..6: note = epitope) [compound 2594]

Epitope sequence binding to IgE antibody, rank of the sequence (Key/Preferably/More preferably) [2]: Key
Substance: 2264 (NYRVAI; REGION 1..6: note = epitope) [compound 2264]

Epitope sequence binding to IgE antibody, rank of the sequence (serum of patient G9 (adult, general immediate type allergy to wheat), partial sequence): Key
Substance: 2612 (QLVQQLCC; REGION 1..8: note = epitope) [compound 2612]

epitope sequence binding to IgE antibody, rank (Key/Preferably/More preferably) (serum of patient G5 (adult, general immediate type allergy to wheat)): Key
Substance: 1784 (LKKVGYNP; REGION 1..8: note = epitope) [compound 1784]

epitope sequence binding to IgE antibody, rank (Key/Preferably/More preferably) (serum of patient P33 (WDEIA)): Key
Substance: 1767 (KKVGYNP; REGION 1..7: note = epitope) [compound 1767]

Rank of partial sequence as epitope binding to IgE antibody (serum of patient P32 (WDEIA), sequence without X): Preferably
Substance: 1634 (YNPDKVPF; REGION 1..8: note = epitope) [compound 1634]

Epitope sequence binding to IgE antibody, rank of the sequence (serum of patient P24 (WDEIA), partial sequence): Key
Substance: 2564 (QLVQQ; REGION 1..5: note = epitope) [compound 2564]

Rank of partial sequence as epitope binding to IgE antibody (serum of patient G3 (adult, general immediate type allergy to wheat), sequence without X): Preferably
Substance: 1666 (YNPDKVP; REGION 1..7: note = epitope) [compound 1666]

Epitope sequence binding to IgE antibody, rank of the sequence (serum of patient P50 (child, general immediate type allergy to wheat), partial sequence): Key
Substance: 2664 (FEKEA; REGION 1..5: note = epitope) [compound 2664]

epitope sequence binding to IgE antibody, rank (Key/Preferably/More preferably) (serum of patient P15 (WDEIA)): Preferably
Substance: 1798 (EALPKFLKN; REGION 1..9: note = epitope) [compound 1798]

Rank of partial sequence as epitope binding to IgE antibody (serum of patient P15 (WDEIA), sequence without X): Key
Substance: 1431 (YLQPQQP; REGION 1..7: note = epitope) [compound 1431]

Epitope sequence binding to IgE antibody, rank of the sequence (serum of patient P33 (WDEIA), sequence without X): Key
Substance: 1249 (QQPIQQQP; REGION 1..8: note = epitope) [compound 1249]

epitope sequence binding to IgE antibody, rank (Key/Preferably/More preferably) (serum of patient P18 (WDEIA)): Key
Substance: 1760 (EVSSYLKKV; REGION 1..9: note = epitope) [compound 1760]

Epitope sequence binding to IgE antibody, rank of the sequence [1]: Key
Substance: 2595 (VQQL; REGION 1..4: note = epitope) [compound 2595]

Rank of partial sequence as epitope binding to IgE antibody [6]: Preferably
Substance: 1489 (QQPISQQQAQ; REGION 1..10: note = epitope) [compound 1489]

Rank of partial sequence as epitope binding to IgE antibody (serum of patient P27 (WDEIA), sequence without X): Preferably
Substance: 1474 (LQPQQPIS; REGION 1..8: note = epitope) [compound 1474]

Epitope sequence binding to IgE antibody, rank of the sequence (serum of patient P12 (WDEIA), partial sequence): Key
Substance: 2677 (YKGPTL; REGION 1..6: note = epitope) [compound 2677]

Epitope sequence binding to IgE antibody, rank of the sequence (serum of patient G6 (adult, general immediate type allergy to wheat), partial sequence): Key
Substance: 2607 (LQQSTYQLVQ; REGION 1..10: note = epitope) [compound 2607]

Rank of partial sequence as epitope binding to IgE antibody [2]: Key
Substance: 1495 (YLQPQQPI; REGION 1..8: note = epitope) [compound 1495]

Epitope sequence binding to IgE antibody, rank of the sequence (serum of patient P20 (WDEIA), partial sequence): Key
Substance: 2554 (LQQSTYQLVQ; REGION 1..10: note = epitope) [compound 2554]

Epitope sequence binding to IgE antibody, rank of the sequence (serum of patient P22 (WDEIA), sequence without X): Key
Substance: 1194 (QQQQFPPQ; REGION 1..8: note = epitope) [compound 1194]

Epitope sequence binding to IgE antibody, rank of the sequence [7]: Key
Substance: 1304 (NVEN; REGION 1..4: note = epitope) [compound 1304]

Epitope sequence binding to IgE antibody, rank of the sequence [7]: Preferably
Substance: 1303 (INVEN; REGION 1..5: note = epitope) [compound 1303]

Epitope sequence binding to IgE antibody, rank of the sequence (Key/Preferably/More preferably) [5]: Key
Substance: 2395 (TEIV; REGION 1..4: note = epitope) [compound 2395]

Epitope sequence binding to IgE antibody, rank of the sequence (Key/Preferably/More preferably/Further preferably) (serum of patient P2 (WDEIA), sequence without X): Preferably
Substance: 1210 (PIQQQP; REGION 1..6: note = epitope) [compound 1210]

Continued, substance first:

Substance: 1173 (QQQQFPPQQP; REGION 1..10: note = epitope) [compound 1173]
Epitope sequence binding to IgE antibody, rank of the sequence (serum of patient P7 (WDEIA), sequence without X): Preferably

Substance: 1416 (YLQPQQPIS; REGION 1..9: note = epitope) [compound 1416]
Epitope sequence binding to IgE antibody, rank of the sequence (serum of patient P8 (WDEIA), sequence without X): Key

Substance: 1857 (TVRTLQR; REGION 1..7: note = epitope) [compound 1857]
epitope sequence binding to IgE antibody, rank (Key/Preferably/More preferably) (serum of patient P18 (WDEIA)): Preferably

Substance: 1239 (QQQPIQQQP; REGION 1..9: note = epitope) [compound 1239]
Epitope sequence binding to IgE antibody, rank of the sequence [3]: Preferably

Substance: 1921 (QVPLVQQQ; REGION 1..8: note = epitope) [compound 1921]
epitope sequence binding to IgE antibody, rank (Key/Preferably/More preferably) (serum of patient P12 (WDEIA)): Preferably

Substance: 1943 (QFPGQQ; REGION 1..6: note = epitope) [compound 1943]
epitope sequence binding to IgE antibody, rank (Key/Preferably/More preferably) (serum of patient P21 (WDEIA)): Key

Substance: 1620 (YNPDKV; REGION 1..6: note = epitope) [compound 1620]
Rank of partial sequence as epitope binding to IgE antibody [3]: Preferably

Substance: 2297 (ERFEK; REGION 1..5: note = epitope) [compound 2297]
Epitope sequence binding to IgE antibody, rank of the sequence (Key/Preferably/More preferably/Further preferably) [4]: Key

Substance: 1877 (TLQR; REGION 1..4: note = epitope) [compound 1877]
epitope sequence binding to IgE antibody, rank (Key/Preferably/More preferably) (serum of patient P31 (WDEIA)): Key

Substance: 2293 (ERFE; REGION 1..4: note = epitope) [compound 2293]
Epitope sequence binding to IgE antibody, rank of the sequence (Key/Preferably/More preferably) [5]: Key

Substance: 1841 (YTVRTLQ; REGION 1..7: note = epitope) [compound 1841]
epitope sequence binding to IgE antibody, rank (Key/Preferably/More preferably) (serum of patient P8 (WDEIA)): Preferably

Substance: 1833 (KFLKN; REGION 1..5: note = epitope) [compound 1833]
epitope sequence binding to IgE antibody, rank (Key/Preferably/More preferably) (serum of patient G7 (adult, general immediate type allergy to wheat)): Key

Substance: 1557 (QVPLVQQQQF; REGION 1..10: note = epitope) [compound 1557]
Rank of partial sequence as epitope binding to IgE antibody [4]: More preferably

Substance: 2230 (IRNYRV; REGION 1..6: note = epitope) [compound 2230]
Epitope sequence binding to IgE antibody, rank of the sequence (Key/Preferably/More preferably) (serum of patient P21 (WDEIA), sequence without X): Key

Substance: 2432 (QSTLKAWSGK; REGION 1..10: note = epitope) [compound 2432]
Epitope sequence binding to IgE antibody, rank of the sequence (Key/Preferably/More preferably) (serum of patient P26 (WDEIA), sequence without X): More preferably

Substance: 1824 (LPKFLK; REGION 1..6: note = epitope) [compound 1824]
epitope sequence binding to IgE antibody, rank (Key/Preferably/More preferably) (serum of patient P36 (WDEIA)): Key

Substance: 1621 (YNPD; REGION 1..4: note = epitope) [compound 1621]
Rank of partial sequence as epitope binding to IgE antibody [3]: Key

Substance: 2242 (IRNYRVAI; REGION 1..8: note = epitope) [compound 2242]
Epitope sequence binding to IgE antibody, rank of the sequence (Key/Preferably/More preferably) [6]: Key

Substance: 1915 (QVPLVQQQQ; REGION 1..9: note = epitope) [compound 1915]
epitope sequence binding to IgE antibody, rank (Key/Preferably/More preferably) (serum of patient P9 (WDEIA)): Key

Substance: 1366 (INVEN; REGION 1..5: note = epitope) [compound 1366]
Epitope sequence binding to IgE antibody, rank of the sequence (serum of patient G7 (adult, general immediate type allergy to wheat), sequence without X): Key

Substance: 1311 (NVEN; REGION 1..4: note = epitope) [compound 1311]
Epitope sequence binding to IgE antibody, rank of the sequence (serum of patient P10 (WDEIA), sequence without X): Key

Substance: 1568 (PFPQTQ; REGION 1..6: note = epitope) [compound 1568]
Rank of partial sequence as epitope binding to IgE antibody [7]: Key

Substance: 2383 (HDIDRCAY; REGION 1..8: note = epitope) [compound 2383]
Epitope sequence binding to IgE antibody, rank of the sequence (Key/Preferably/More preferably) (serum of patient P29 (WDEIA), sequence without X): Key

Substance: 1407 (YLQPQQPISQ; REGION 1..10: note = epitope) [compound 1407]
Epitope sequence binding to IgE antibody, rank of the sequence [7]: Preferably
